This note sets out measurements from publication PMC7315563, “Bioactive fluorenes. Part III: 2,7-dichloro-9H-fluorene-based thiazolidinone and azetidinone analogues as anticancer and antimicrobial against multidrug resistant strains agents” (BMC Chemistry, 2020).

Converted amounts (≈) assume the structure as drawn.

Assay [1] concerns Staphylococcus aureus (S. aureus), multidrug resistant clinical isolate. In words: agar well diffusion assay. Type of assay: cell-based. The conditions noted are these: S. aureus, 500 µg/mL of tested compound, 24 h; for zone of inhibition at 500 µg/mL: Staphylococcus aureus. Put shortly: (§1)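 Multidrug-resistant clinical isolates swabbed on Mueller–Hinton agar at about 1–5 × 10^5 CFU/mL; 0.5 cm wells received 50 μL compound at 500 μg/mL in 1% DMSO. Incubation 24 h, 37 °C for bacteria and C. albicans, 25 °C for Aspergillus; inhibition zone diameter measured in mm.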

Assay [2] has as its system Pseudomonas aeruginosa (P. aeruginosa), multidrug resistant clinical isolate. Briefly: agar well diffusion assay. It is filed as cell-based. As to conditions: 24 h, 500 µg/mL of tested compound. Summed up: as §1
Assay [3] has as its system Klebsiella pneumoniae (K. pneumoniae), multidrug resistant clinical isolate. Briefly: agar well diffusion assay. It is filed as cell-based. As to conditions: 24 h, 500 µg/mL of tested compound. Put shortly:
as §1

Another assay has as its system MDA-MB-231 cells. In words: FACS analysis, Annexin V and PI staining. It is filed as cell-based, human. The conditions noted are these: 24 h, 5g 500, 6c 105, 6d 170, 6k 130 µg/mL. As to the method: To uncover the mechanism of cell death for the compounds 5h, 6c, 6d and 6k on WI-38, A549, and MDA-MB-231 cells; Annexin v and propedium Iodide (PI) were used. In brief, WI-38, A549, MDA-MB-231 cells were cultured in 10 tissue culture dish with initial number 4 × 10^5 cell/Ml in RPMI growth media. […] After 24 h incubations, cells were washed and trypsinized and suspended in 50 μL 1X Annexin v binding buffer followed by adding 5 μL FITC Annexin V and incubated for 15 min at room temperature then 5 μL of PI were added to each tube. Finally, 400 μL of 1X Annexin v binding buffer were added to each tube and analyzed using Becton-Dickinson FACS Caliber.

Assay [4] deals with A549 human lung cancer cells. In words: cell viability assay (MTT). The conditions noted are these: 24 h; for viability at 1 µg/mL: read-out: Validity (%) for sample concentrations (µg/mL) 1; for viability at 10 µg/mL: read-out: Validity (%) for sample concentrations (µg/mL) 10; for viability at 31.25 µg/mL: read-out: Validity (%) for sample concentrations (µg/mL) 31.25; for viability at 62.5 µg/mL: 62.50 µg/mL, read-out: Validity (%) for sample concentrations (µg/mL) 62.50; for viability at 125 µg/mL: read-out: Validity (%) for sample concentrations (µg/mL) 125; for viability at 250 µg/mL: read-out: Validity (%) for sample concentrations (µg/mL) 250; for viability at 500 µg/mL: read-out: Validity (%) for sample concentrations (µg/mL) 500; for viability at 1000 µg/mL: read-out: Validity (%) for sample concentrations (µg/mL) 1000. It is filed as cell-based.

Another assay concerns A549 cells. Briefly: FACS analysis, Annexin V and PI staining. It is filed as cell-based, human. The conditions noted are these: 24 h, 5g 500, 6c 85, 6d 117, 6k 200 µg/mL. As to the method: (§2) To uncover the mechanism of cell death for the compounds 5h, 6c, 6d and 6k on WI-38, A549, and MDA-MB-231 cells; Annexin v and propedium Iodide (PI) were used. In brief, WI-38, A549, MDA-MB-231 cells were cultured in 10 tissue culture dish with initial number 4 × 10^5 cell/Ml in RPMI growth media. In the following day, cells were treated with 6c, 6d and 6k as the following; (0.0, 500 μg/mL form each drug for WI-38 treatment, 0.0, 85, 117 and 200 μg/mL; respectively, for […] and 0.0, 250 from each for MDA-MB-231 cells treatment). After 24 h incubations, cells were washed and trypsinized and suspended in 50 μL 1X Annexin v binding buffer followed by adding 5 μL FITC Annexin V and incubated for 15 min at room temperature then 5 μL of PI were added to each tube. Finally, 400 μL of 1X Annexin v binding buffer were added to each tube and analyzed using Becton-Dickinson FACS Caliber.

The test system of another assay is WI-38 cells. In words: FACS analysis, Annexin V and PI staining. Type of assay: cell-based, human. The conditions noted are these: 24 h, 5g 1000 µg/mL, 6c, 6d, 6k 500 µg/mL. As to the method:
as §2

The compound `O=C1C(Cl)C(c2ccc(Cl)cc2)N1c1nc(-c2cc(Cl)cc3c2-c2ccc(Cl)cc2C3)cs1` (stereo not drawn) [6c, 3-Chloro-4-(4-chlorophenyl)-1-(4-(2,7-dichloro-9H-fluoren-4-yl)thiazol-2-yl)azetidin-2-one] gave a zone of inhibition at 500 µg/mL in assay [1] of 7 mm. The compound also yielded a zone of inhibition at 500 µg/mL in assay [2] of 10 mm. This compound came in with a zone of inhibition at 500 µg/mL in assay [3] of 6 mm. In addition, in the assay on MDA-MB-231 cells, the “apoptotic cell death (of total cell number)” value (shortened to “apoptotic cell death”) stood at 80.32% and the “necrotic cell death (of total cell number)” value (“necrotic cell death” below) is 2.15%. Moreover, in assay [4], the viability at 1 µg/mL amounted to 92.4%, the viability at 10 µg/mL worked out at 80.7%, the viability at 31.25 µg/mL was 59.8% and the viability at 62.5 µg/mL was 54.2%. In assay [4], the viability at 125 µg/mL stood at 31.3%, the viability at 250 µg/mL is 25.1%, the viability at 500 µg/mL was 19.7% and the viability at 1000 µg/mL was 17.7%. In assay [4], this compound had a half-inhibitory concentration (IC50) of 85 µg/mL (≈ 160 µM). In the assay on A549 cells, the “apoptotic cell death” value turned out to be 27.32% and the “necrotic cell death” value is given as 2.1%. In addition, in the assay with WI-38 cells, the “apoptotic cell death” value is 1.22% and the “necrotic cell death” value amounted to 14.5%.

On to `O=C1C(Cl)C(c2ccc(Br)cc2)N1c1nc(-c2cc(Cl)cc3c2-c2ccc(Cl)cc2C3)cs1` (stereo not drawn) [6d, 4-(4-Bromophenyl)-3-chloro-1-(4-(2,7-dichloro-9H-fluoren-4-yl)thiazol-2-yl)azetidin-2-one], for which, in assay [1], the “Mean zone of inhibition” value is recorded as “low activity” and the zone of inhibition at 500 µg/mL turned out to be 3 mm. The same compound registered a zone of inhibition at 500 µg/mL in assay [2] of 10 mm. Further, in assay [3], the zone of inhibition at 500 µg/mL stood at 6 mm. Also, in the assay on MDA-MB-231 cells, the “apoptotic cell death” value turned out to be 55.355%. Further, in assay [4], the viability at 1 µg/mL turned out to be 97.9%, the viability at 10 µg/mL amounted to 92.6%, the viability at 31.25 µg/mL is 77.2% and the viability at 62.5 µg/mL came to 67.3%. Further, in assay [4], the viability at 125 µg/mL worked out at 49%, the viability at 250 µg/mL stood at 24.6%, the viability at 500 µg/mL is 20.4% and the viability at 1000 µg/mL came to 19.4%. This compound returned an IC50 in assay [4] of 117 µg/mL (≈ 203 µM). Further, in the assay with A549 cells, the “apoptotic cell death” value is 36.3% and the “necrotic cell death” value is on record as 2%. Moreover, in the assay with WI-38 cells, the “apoptotic cell death” value was found to be 1.34% and the “necrotic cell death” value was 14.1%.

Regarding `O=C1C(Cl)C(c2cccs2)N1c1nc(-c2cc(Cl)cc3c2-c2ccc(Cl)cc2C3)cs1` (stereo not drawn) [6k, 3-Chloro-1-(4-(2,7-dichloro-9H-fluoren-4-yl)thiazol-2-yl)-4-(thiophen-2-yl)azetidin-2-one], the zone of inhibition at 500 µg/mL in assay [1] was 7 mm. The compound also gave a zone of inhibition at 500 µg/mL in assay [2] of 11 mm. In addition, the zone of inhibition at 500 µg/mL in assay [3] was determined as 3 mm. In addition, in the assay on MDA-MB-231 cells, the “apoptotic cell death” value stood at 67.25% and the “necrotic cell death” value worked out at 4.56%. In assay [4], the viability at 1 µg/mL turned out to be 90.8%, the viability at 10 µg/mL was 80.8%, the viability at 31.25 µg/mL amounted to 76% and the viability at 62.5 µg/mL amounted to 70.6%. For the same compound, in assay [4], the viability at 125 µg/mL came out at 55.4%, the viability at 250 µg/mL is 39.8%, the viability at 500 µg/mL was 28.7% and the viability at 1000 µg/mL stood at 23%. Besides, it took 203 µg/mL (≈ 403 µM) to reach half-maximal inhibition in assay [4] (IC50). In the assay on A549 cells, the “apoptotic cell death” value is reported as 32.67% and the “necrotic cell death” value worked out at 1.71%. In the assay on WI-38 cells, the “apoptotic cell death” value was determined as 0.61% and the “necrotic cell death” value is recorded as 9.93%.
